The source of these data is patent publication US5707798A, “Identification of ligands by selective amplification of cells transfected with receptors” (priority 1994, dated 1998).

In test [1] the test system is Muscarinic acetylcholine receptors that stimulate phospholipase c (m1, m3, m5). To be noted: cited from earlier work.
Another test concerns the target trk C receptor. On the set-up: Rmax: key to the marks not given beside the values.
In the next test the target is trk A receptor. Particulars: Table 2.
Test [2] has as its target T1, m5 muscarinic receptor (Homo sapiens, UniProt P08912).
T1 construct: expressed in transfected cells; host or cells: NIH 3T3 (mouse fibroblasts)
T1 sequence (P08912 1-532): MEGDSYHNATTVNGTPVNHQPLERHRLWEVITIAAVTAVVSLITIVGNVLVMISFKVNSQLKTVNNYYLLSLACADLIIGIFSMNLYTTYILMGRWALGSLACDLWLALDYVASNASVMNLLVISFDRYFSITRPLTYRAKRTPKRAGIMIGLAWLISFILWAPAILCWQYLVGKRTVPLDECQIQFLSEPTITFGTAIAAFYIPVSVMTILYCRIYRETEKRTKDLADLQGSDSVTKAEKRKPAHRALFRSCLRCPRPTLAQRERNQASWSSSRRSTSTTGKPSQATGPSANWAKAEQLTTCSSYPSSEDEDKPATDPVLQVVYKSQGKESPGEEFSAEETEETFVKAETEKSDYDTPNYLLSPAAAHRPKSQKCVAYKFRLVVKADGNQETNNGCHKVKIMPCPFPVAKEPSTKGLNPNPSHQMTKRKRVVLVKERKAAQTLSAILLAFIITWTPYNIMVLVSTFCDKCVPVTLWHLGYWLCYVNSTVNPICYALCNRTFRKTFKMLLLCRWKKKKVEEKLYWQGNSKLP
In kind it is cell-based.

The target in the next test is T2, m4 muscarinic receptor (Homo sapiens, UniProt P08173).
T2 sequence (P08173 1-479): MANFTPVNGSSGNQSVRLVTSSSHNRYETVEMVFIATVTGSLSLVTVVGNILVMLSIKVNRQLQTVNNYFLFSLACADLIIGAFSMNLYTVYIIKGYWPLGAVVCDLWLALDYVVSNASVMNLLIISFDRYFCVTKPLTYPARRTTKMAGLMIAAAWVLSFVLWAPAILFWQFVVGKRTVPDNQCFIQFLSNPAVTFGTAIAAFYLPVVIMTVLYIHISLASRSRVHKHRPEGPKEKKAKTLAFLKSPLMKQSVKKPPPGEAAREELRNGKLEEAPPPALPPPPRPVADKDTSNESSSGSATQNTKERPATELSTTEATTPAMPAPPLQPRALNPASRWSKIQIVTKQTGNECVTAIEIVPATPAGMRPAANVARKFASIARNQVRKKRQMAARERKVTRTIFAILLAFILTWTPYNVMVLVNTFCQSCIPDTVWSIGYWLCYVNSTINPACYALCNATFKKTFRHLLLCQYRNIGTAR
The test is described as follows: cell-based.

A further test deals with m3 muscarinic receptor (Homo sapiens, UniProt P20309). The test is described as follows: cell-based.
Sequence of m3 muscarinic receptor (P20309 whole entry): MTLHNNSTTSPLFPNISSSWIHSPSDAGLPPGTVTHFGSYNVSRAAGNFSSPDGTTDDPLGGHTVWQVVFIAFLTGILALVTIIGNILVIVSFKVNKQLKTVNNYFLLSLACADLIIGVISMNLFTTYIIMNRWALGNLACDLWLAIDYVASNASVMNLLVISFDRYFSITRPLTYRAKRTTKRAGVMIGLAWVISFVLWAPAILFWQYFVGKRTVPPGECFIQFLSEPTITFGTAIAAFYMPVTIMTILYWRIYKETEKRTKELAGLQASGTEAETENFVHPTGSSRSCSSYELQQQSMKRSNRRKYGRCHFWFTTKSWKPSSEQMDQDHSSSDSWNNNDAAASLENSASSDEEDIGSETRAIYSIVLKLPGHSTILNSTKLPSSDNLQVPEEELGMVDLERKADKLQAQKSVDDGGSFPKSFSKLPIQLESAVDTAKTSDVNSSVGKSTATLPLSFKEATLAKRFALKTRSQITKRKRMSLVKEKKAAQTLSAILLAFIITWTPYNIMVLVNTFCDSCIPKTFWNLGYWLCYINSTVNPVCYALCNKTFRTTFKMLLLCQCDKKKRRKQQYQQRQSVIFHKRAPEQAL
The next test concerns the target T3, m1 muscarinic receptor (Homo sapiens, UniProt P11229).
T3 sequence (P11229 1-460): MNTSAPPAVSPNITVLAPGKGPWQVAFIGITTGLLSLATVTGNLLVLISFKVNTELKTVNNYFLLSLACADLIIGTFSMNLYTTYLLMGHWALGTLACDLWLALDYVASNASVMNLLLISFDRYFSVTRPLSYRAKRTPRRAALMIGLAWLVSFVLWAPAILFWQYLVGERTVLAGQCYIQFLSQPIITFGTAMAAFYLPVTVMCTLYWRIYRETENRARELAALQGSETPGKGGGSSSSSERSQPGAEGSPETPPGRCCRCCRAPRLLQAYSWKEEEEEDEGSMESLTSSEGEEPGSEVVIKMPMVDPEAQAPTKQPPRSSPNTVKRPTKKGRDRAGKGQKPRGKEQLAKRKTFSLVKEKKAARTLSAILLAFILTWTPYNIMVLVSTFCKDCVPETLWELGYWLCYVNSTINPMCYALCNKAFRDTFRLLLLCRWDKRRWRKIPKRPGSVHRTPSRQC
As to the kind of experiment: cell-based.

For test [3], the target named is T4, m2 muscarinic receptor (Homo sapiens, UniProt P08172).
T4 construct: expressed in transfected cells; host or cells: NIH 3T3 (mouse fibroblasts)
T4 sequence (P08172 1-466): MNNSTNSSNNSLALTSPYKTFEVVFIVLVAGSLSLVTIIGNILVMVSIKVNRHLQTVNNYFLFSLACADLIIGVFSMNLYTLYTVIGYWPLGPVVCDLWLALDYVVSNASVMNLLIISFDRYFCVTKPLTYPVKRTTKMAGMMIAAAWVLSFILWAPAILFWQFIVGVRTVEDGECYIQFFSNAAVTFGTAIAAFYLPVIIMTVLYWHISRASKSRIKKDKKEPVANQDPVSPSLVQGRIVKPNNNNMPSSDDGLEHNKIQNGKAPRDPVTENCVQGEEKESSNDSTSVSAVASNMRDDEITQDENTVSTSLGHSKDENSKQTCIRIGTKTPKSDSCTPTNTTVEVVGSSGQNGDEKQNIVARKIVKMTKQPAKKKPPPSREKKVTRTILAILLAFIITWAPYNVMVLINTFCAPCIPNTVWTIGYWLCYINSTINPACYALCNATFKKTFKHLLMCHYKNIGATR
As to the kind of experiment: cell-based.

Test [4] deals with T5, alpha 2 C10 adrenergic receptor (Homo sapiens, UniProt P08913).
T5 construct: expressed in transfected cells; host or cells: NIH 3T3 (mouse fibroblasts)
T5 sequence (P08913 1-465): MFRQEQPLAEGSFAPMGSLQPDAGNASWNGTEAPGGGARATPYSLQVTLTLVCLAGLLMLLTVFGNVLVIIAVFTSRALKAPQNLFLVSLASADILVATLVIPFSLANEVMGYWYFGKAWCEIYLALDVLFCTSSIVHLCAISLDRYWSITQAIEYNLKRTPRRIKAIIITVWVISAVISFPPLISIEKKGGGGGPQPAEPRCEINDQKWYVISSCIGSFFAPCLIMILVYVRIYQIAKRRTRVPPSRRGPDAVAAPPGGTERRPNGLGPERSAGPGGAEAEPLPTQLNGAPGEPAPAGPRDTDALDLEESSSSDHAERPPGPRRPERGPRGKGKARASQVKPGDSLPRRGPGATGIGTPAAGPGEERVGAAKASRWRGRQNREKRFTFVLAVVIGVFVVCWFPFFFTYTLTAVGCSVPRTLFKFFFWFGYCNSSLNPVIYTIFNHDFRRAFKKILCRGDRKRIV
In kind it is cell-based. To be noted: α2-C10, Table 3.

Test [5] has as its target T6, alpha 2 C2 adrenergic receptor (Homo sapiens, UniProt P18089).
T6 sequence (P18089 1-450): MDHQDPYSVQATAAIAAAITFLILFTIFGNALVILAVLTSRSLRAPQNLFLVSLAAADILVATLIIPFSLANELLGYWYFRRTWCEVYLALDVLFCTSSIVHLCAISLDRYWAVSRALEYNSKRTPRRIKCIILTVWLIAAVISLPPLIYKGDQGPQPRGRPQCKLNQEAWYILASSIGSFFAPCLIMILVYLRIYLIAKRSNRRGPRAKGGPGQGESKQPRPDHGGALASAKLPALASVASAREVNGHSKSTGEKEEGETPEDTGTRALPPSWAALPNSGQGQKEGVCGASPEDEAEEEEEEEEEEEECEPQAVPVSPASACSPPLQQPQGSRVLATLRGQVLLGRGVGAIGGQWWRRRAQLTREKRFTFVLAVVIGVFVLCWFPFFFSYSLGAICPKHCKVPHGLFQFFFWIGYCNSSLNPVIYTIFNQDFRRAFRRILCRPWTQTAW
In kind it is cell-based. To be noted: α2-C2, Table 3.

The target in a further test is T7, EP3 prostanoid receptor (Homo sapiens, UniProt P43115).
T7 construct: expressed in transfected cells; host or cells: NIH 3T3 (mouse fibroblasts, ATCC CRL 1658)
T7 sequence (P43115 1-390): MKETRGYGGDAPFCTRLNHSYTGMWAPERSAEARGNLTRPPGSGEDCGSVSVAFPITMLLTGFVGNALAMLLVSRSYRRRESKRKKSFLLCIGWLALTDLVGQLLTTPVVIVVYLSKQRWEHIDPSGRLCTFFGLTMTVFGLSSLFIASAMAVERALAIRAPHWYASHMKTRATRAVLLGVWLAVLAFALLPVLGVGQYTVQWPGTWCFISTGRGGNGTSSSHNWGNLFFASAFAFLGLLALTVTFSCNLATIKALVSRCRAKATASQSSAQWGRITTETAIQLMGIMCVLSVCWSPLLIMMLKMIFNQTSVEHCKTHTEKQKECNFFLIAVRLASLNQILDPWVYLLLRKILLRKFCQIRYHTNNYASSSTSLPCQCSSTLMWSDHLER
Format: cell-based. To be noted: EP3, Table 2; read-out: Ligand EC50.

Test [6] concerns trk A receptors (NGF receptor). To be noted: only when transfected with trk A; cited from earlier work.
Test [7] has as its target T4, m2 muscarinic receptor. The test is described as follows: cell-based. Format: cell-based.
For test [8], the target named is T1, m5 muscarinic receptor. The test is described as follows: Focus induction in NIH 3T3 cells transfected with m5 DNA. In kind it is cell-based. To be noted: low concentrations.
Test [9] concerns the target T4, m2 muscarinic receptor. The test is described as follows: β-galactosidase levels, m2 receptor in the absence of expressed G-protein. In kind it is cell-based.
In test [10] the target is T1, m5 muscarinic receptor. In kind it is cell-based. The source holds these as a separate data set.
A further test has as its system NIH 3T3 cells. As to the kind of experiment: Amplification response in the absence of the indicated target receptor. In kind it is cell-based, mouse. Particulars: absence of the ligand's target receptor. Here is the method:
FIG. 16 illustrates the maximal ligand-induced responses of the indicated receptors, as assayed using cotransfected cultures using a Multiple Receptor Format similar to that described in FIG. 11. […] Cells were incubated in wells of a 96 well plate for 4 days with each ligand. Maximal responses were calculated by fitting the data to a model of a single mass-action site.

Test [11] has as its target T8, alpha 2 C4 adrenergic receptor (Homo sapiens, UniProt P18825).
T8 construct: expressed in transfected cells; host or cells: NIH 3T3 (mouse fibroblasts)
T8 sequence (P18825 1-462): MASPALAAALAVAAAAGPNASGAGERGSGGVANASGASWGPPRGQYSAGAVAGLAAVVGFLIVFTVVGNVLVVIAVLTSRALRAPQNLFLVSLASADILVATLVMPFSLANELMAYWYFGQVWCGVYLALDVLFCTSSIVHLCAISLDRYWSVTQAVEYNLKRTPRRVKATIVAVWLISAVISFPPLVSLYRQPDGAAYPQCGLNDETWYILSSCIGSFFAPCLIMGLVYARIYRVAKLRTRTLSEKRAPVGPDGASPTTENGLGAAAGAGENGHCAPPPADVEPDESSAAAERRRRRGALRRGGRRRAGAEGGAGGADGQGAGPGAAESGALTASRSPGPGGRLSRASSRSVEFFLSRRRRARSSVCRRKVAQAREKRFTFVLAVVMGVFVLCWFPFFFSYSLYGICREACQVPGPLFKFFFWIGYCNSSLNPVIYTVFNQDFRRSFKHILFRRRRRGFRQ
Format: cell-based. To be noted: α2-C4, Table 3.

Test [12] concerns certain alpha adrenergic receptors. To be noted: cited from earlier work.

Bounds are passed on as bounds.

`CN1[C@@H]2CC[C@H]1C[C@@H](OC(=O)C(CO)c1ccccc1)C2` (stereo partly shown) [atropine]: the “block of agonist-stimulated phospholipase c, mitogenesis and foci” value in [1] is “blocked”.
On to NT3: related neutrotrophic factor NT3, for which the figures for the “Ligand EC50” value at trk C receptor (Table 2) and on trk A receptor were 0.0024 ± 0.0011 µg/mL and > 1 µg/mL, respectively. Further, in the test on trk C receptor (relative to other clones), the Rmax entry is listed as “++++”.
The Ki is a dissociation constant, usually derived from enzyme kinetics or from competition with a known ligand. Take `O[Si](CCCN1CCCCC1)(c1ccc(F)cc1)C1CCCCC1` (stereo not shown) [p-F-HHSiD]: the Ki on m5 muscarinic receptor [2] is 79.4 nM; at m4 muscarinic receptor it was 50.1 nM; at m3 muscarinic receptor, 31.6 nM; at m1 muscarinic receptor it was 251 nM; on m2 muscarinic receptor [3], 501 nM.
Usually EC50 stands for the concentration needed to bring the measured effect to its halfway point. For `CCN1CCc2nc(N)oc2CC1` [BHT 933], the EC50 in [4] and in [5] was > 10000 nM throughout.
In the case of `O=C(O)CCCCCC[C@H]1C(=O)CC[C@@H]1/C=C/[C@@H](O)COc1ccccc1` [MB28767], at EP3 prostanoid receptor, the EC50 amounted to 270 ± 190 nM.
With Nerve growth factor [NGF], the “induction of amplification responses” value in the test on trk C receptor (data not shown) is recorded as “not able to induce amplification responses”. Further, the growth stimulation entry in [6] is recorded as “stimulates growth”.
Regarding `C[N+](C)(C)CCOC(N)=O` [carbachol], the “time to plateau of β-galactosidase induction” value on m2 muscarinic receptor [7] (m2/q-i5) and at m5 muscarinic receptor [10] (m5) was “about five” each time. Moreover, the “induction of β-galactosidase levels” value at m2 muscarinic receptor [7] (m2/q-i5, time-course) was “significantly induce β-galactosidase levels”; at m5 muscarinic receptor [10] (m5, time-course), “significantly induce β-galactosidase levels”. The focus response result at m5 muscarinic receptor [8] is “robust ligand-dependent responses”. In addition, the “effect on β-galactosidase levels” value on m2 muscarinic receptor [9] is reported as “no effect on β-galactosidase levels”. In addition, in the test on NIH 3T3 cells, the induction of responses result is “unable to induce responses”.
Take `C=CCN1CCc2nc(N)sc2CC1` [BHT 920]: the EC50 in test [4] and in test [11] was > 10000 nM each time.
In the case of `NC[C@H](O)c1ccc(O)c(O)c1` [Norepinephrine], in [11] (relative to other ligands at the receptor), the “Max Response” value is given as “+”. Further, in test [12], the growth stimulation entry was “stimulates”.
